In publication PMC4446823, “Inhibition of RORγt activity and Th17 differentiation by a set of novel compounds” (BMC Immunology, 2015):
Where two headings read alike, the source gives them in different places.

Experiments:
RORγt [1] = target: T1, RORγt (Homo sapiens, UniProt P51449); assay: Gal4/RORγt-LBD luciferase reporter assay in RORγt-LBD+ Jurkat stable cells; format: cell-based; conditions: RORγt-LBD+ Jurkat cells, 6 h
T1 construct: expressed in transfected cells
T1 sequence (P51449 269-508 limits assumed): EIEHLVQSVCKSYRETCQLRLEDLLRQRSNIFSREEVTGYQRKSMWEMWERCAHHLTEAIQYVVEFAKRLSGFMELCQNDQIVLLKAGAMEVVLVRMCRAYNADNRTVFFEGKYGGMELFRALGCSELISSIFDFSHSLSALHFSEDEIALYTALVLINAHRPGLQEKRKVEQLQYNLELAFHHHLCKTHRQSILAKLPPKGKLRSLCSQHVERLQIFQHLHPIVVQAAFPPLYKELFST
From the text: (§1) The pGL4.31 (luc2P/GAL4UAS/Hygro) and pBIND vectors were obtained from Promega (Madison, WI, USA). An IRES-GFP sequence was first cloned into the pBIND vector. Human RORγt was then amplified using cDNA isolated from human peripheral blood mononuclear cells (PBMCs) (provided by Dr. Hui Zhang) and inserted into the reconstructed pBIND-IRES-GFP vector to generate a Gal4–RORγt-LBD-IRES-GFP fusion sequence. The primers that used to construct the pBIND- Gal4–RORγt-LBD-IRES-GFP plasmid are as follows: RORγt-LBD forward 5′- […]-3′,reverse5′- […] -3′.
A similar procedure was used to generate the Jurkat RORγt -LBD reporter cell line. For this, Jurkat cells (1 × 10^7) were transfected with pGL4.31 reporter plasmid (20 μg) by electroporation (Lonza, Basel, Switzerland) according to the manufacturer’s instructions. The transfected Jurkat cells were selected in RPMI 1640 medium containing 200 μg/mL hygromycin B prior to a second transfection. Stable Jurkat cotransfectants were then sorted based on GFP expression, and yielded a GFP^+ purity >96 % as determined by flow cytometry.
RORγt-LBD^+-Jurkat (2 × 10^4) stable cells were seeded into 96-well round-bottom plates (Corning Inc, Corning, NY) and incubated in RPMI1640 complete medium overnight. Then, Screened compounds (Enamine, Monmouth Junction, NJ) were added to the wells using a Tecan Freedom EVO 150 (Tecan, Männedorf, Switzerland) to a final concentration of 50 μM. Cells were treated with DMSO or 100 nM PMA (Sigma-Aldrich, St. Louis, MO) only for use as negative and positive controls, respectively. After a 6 h treatment period, cells were lysed and assayed for luciferase activity (Promega) following the manufacturer’s instructions.
RORγt-LBD^+-Jurkat cells were seeded into 96-well round-bottom plates (2 × 10^4) and cultured overnight prior to incubation with the screening compounds at 5-fold gradient final concentrations ranging from 5 μM to 8 nM. Cells were lysed 6 h later and assayed for luciferase activity (Promega) using the manufacturer’s instructions. Additionally, the results from the high-throughput screening at 50 μM concentration of candidates were also applied in the calculation of the EC50. The EC50 values were determined by plotting the logarithm of compound concentration versus relative luciferase activity to determine the half-maximal effective concentration (EC50).

[2] = test system: mouse Th17 cell differentiation; assay: In vitro mouse Th17 cell differentiation, mRNA by quantitative PCR; format: cell-based; conditions: 5 μM, Th17-polarizing conditions (TGF-β, IL-6), 4 days, normalized to GAPDH
Method: (§2) CD4^+CD25^− T cells were isolated from spleens of 8–12-week-old C57BL/6 mice as follows: single-cell suspensions were made by crushing the spleen through a cell strainer, and red blood cells (RBCs) were lysed with RBC lysis buffer. CD4^+ T cells were then purified using magnetic-activated cell sorting (MACS) column a CD4^+ T cell isolation kit (Miltenyi Biotec, Bergisch Gladbach, Germany) according to the manufacturer’s protocol.
(§3) Spleen cells (3 × 10^6) were stimulated in 6-well plates with 5 μg/mL plate-bound anti-CD3e antibody (eBioscience, San Diego, USA) and 2 μg/mL soluble anti-CD28 antibody (eBioscience) for 24 h. The activated cells were then collected, and seeded into 96-well round-bottom plates (2 × 10^4) for Th17 differentiation in the presence of 5 ng/mL recombinant human TGF-β (R&D Systems, Minneapolis, MN), 30 ng/mL recombinant mouse IL-6 (R&D Systems, Minneapolis, MN), and either the screening compounds (5 μM final concentration) or DMSO as control. After culturing for 2 days, fresh medium (100 uL/well) containing recombinant human TGF-β, recombinant mouse IL-6, and the previously-introduced screening compounds was added to the cells, which were then cultured for additional 2 days.
Total RNA was extracted from splenocytes with TRIzol (Invitrogen) after 5 days in culture. Approximately 1 μg total RNA was added to a 20 μL reaction volume for reverse transcription using the GoScript™ Reverse Transcription System (Promega) according to the manufacturer’s instructions. Synthesized cDNA was then used for real-time quantitative PCR using GoTaq® qPCR Master Mix (Promega). Gene expression of mouse Rorc, Il17a, and Il17f was normalized to that of Gapdh. The following primer sequences were used: Rorc forward 5′-TGTAATGTGG CCTACTCCTGCA-3′, reverse 5′-[…]-3′; Il17a forward 5′- […]-3′, reverse 5′-[…] -3′; Il17f forward 5′-[…]-3′, reverse 5′- […]-3′; Gapdh forward 5′-[…]-3′, reverse 5′-[…]-3′.

wild type Jurkat cells = assay: Jurkat cell viability, MTT assay; format: cell-based, human; conditions: 48 h; for reduction of Jurkat cell viability over vehicle control: 5 μM (highest concentration)
Method: (§4) Jurkat cell viability after culturing in the presence of the screened compounds was assessed by MTT assay. In brief, wild type Jurkat cells were seeded (2 × 10^4) and incubated with the compounds in 5-fold gradient dilutions. MTT (dimethylthiazolyl-2-5-diphenyltetrazolium bromide) dye solution (Sigma, St. Louis, MO, USA) was added 48 h later and incubated at 37 °C for 4 h, MTT was reduced by live cells into a colored formazan product. After centrifugation at 1500 rpm for 5 min, the supernatant was discarded and 100 μL DMSO was added to the plate, which was gently shaken for 10 min to dissolve the formazan product. Absorbance at 570 nm wavelength was recorded using Thermo Scientific Multiskan FC (Thermo Scientific, Waltham, MA, USA). Each treatment was repeated in quadruplicate. Cell viabilities were defined relative to control cells treated only with DMSO, with results used as evaluation of cytotoxicity of candidates. The half-maximal cytotoxic concentration (CC50) for each compound was calculated from the dose–response curves with the aid of GraphPad Prism software 5.0 (GraphPad Software, San Diego, CA).

IL-17A secretion = IL-17A secretion by ELISA in culture supernatant under Th17-polarizing conditions; format: cell-based; conditions: mouse CD4+ T cells, compound 5 μM, 5 days
Method: as §2, §3
The concentration of IL-17A in the splenocyte supernatant after 5 days in culture was determined using an ELISA kit (CUSABIO, Wuhan, China) according to the manufacturer’s protocol.

[3] = Jurkat cell viability, MTT assay; format: cell-based, human; conditions: human, wild-type Jurkat cells, highest concentration 5 μM
Method: as §4

RORγt [4] = target: T1, RORγt; assay: Gal4/RORγt-LBD luciferase reporter assay in RORγt-LBD+ 293 T stable cells; format: cell-based; conditions: RORγt-LBD+ 293 T cells, 5 μM, 6 h
From the text: as §1
The pGL4.31 reporter plasmid (4 μg) was transfected into 293 T cells (1 × 10^6) with Lipofectamine™ 2000 (Invitrogen) according to manufacturer instructions. The transfected cells were then selected in a medium containing 100 μg/mL hygromycin B (Roche, San Francisco, CA, USA) for 3 weeks to obtain a cell population that expressed the pGL4.31 reporter gene. Then, the stable cells were transfected with pBIND-RORγt-LBD-IRES-GFP plasmid (4 μg). The cotransfectants were sorted by green fluorescent protein (GFP) expression, which yielded a RORγt-LBD^+ 293Tstable reporter cell line with >96 % purity as determined by flow cytometry.
RORγt-LBD^+-293 T (1x10^4) stable cells wereseeded into 96-well plates (Corning Inc., Corning, NY)and incubated in DMEM complete medium overnight. Then the candidates were added with a final concentration of 5 μM. […]

[5] = read-out: EC50, inhibition of RORγt activity, Gal4/RORγt-reporter system

SMILES	EC50 (RORγt [1]; [5]) [µM]	Il17a gene expression compared with vehicle-treated control group [2]	Il17f gene expression compared with vehicle-treated control group [2]	reduction of Jurkat cell viability over vehicle control (wild type Jurkat cells)	IL-17A concentration in culture supernatant (IL-17A secretion) [pg/mL]	reduction of IL-17A concentration compared with vehicle-treated control cells (IL-17A secretion) [%]	CC50 at 48 h [3] [µM]	EC50 (RORγt [1]; 5 μM to 8 nM, read-out: EC50, relative luciferase activity, Gal4-reporter system) [µM]	reduction of RORγt activity in 293 T cells (RORγt [4])	CC50 (wild type Jurkat cells; wild-type Jurkat cells, highest concentration 5 μM) [µM]
CCc1nnc(NC(=O)C2(S(=O)(=O)c3ccc(C)c(C)c3)CCCC2)s1 [compound 35, 1-(3,4-dimethylphenyl) sulfonyl-N-(5-ethyl-1,3,4-thiadiazol-2-yl) cyclopentane-1-carboxamide]	28	significantly reduce	significantly reduce	less than 25%	–	–	–	–	–	–
Cc1cc(NC(=O)NC(c2ccc(C(C)C)cc2)c2cccs2)no1 (centres unmarked) [compound 29, 3-(5-methyl-1,2-oxazol-3-yl) - 1-[(4-propan-2-ylphenyl) - thiophen-2-ylmethyl] urea]	2.1	significantly reduce	significantly reduce	less than 25%	209	44	> 5	–	–	–
CC1Cc2ccccc2N1S(=O)(=O)c1ccc(Cl)c(C(F)(F)F)c1 (centres unmarked) [744267-30-9, 1-[4-chloro-3-(trifluoromethyl)phenyl] sulfonyl-2-methyl-2,3-dihydroindole, reference compound]	–	–	–	–	–	–	–	0.723	strongly inhibited	–
CCCc1cc(C(=O)OCC(=O)NC(=O)NC2CCCC2)sc1C [compound 36, 2- Thiophenecarboxylic acid, 5-methyl-4-propyl-,2-[[(cyclopentylamino)carbonyl]amino] - 2-oxoethyl ester]	4.2	significantly reduce	significantly reduce	about 50%	189	49	–	–	–	> 5
O=C(c1ccc(C2CCCCC2)cc1)N(CC1CCCO1)C1CCS(=O)(=O)C1 (centres unmarked) [compound 31, 4-cyclohexyl-N-(1,1-dioxothiolan-3-yl) - N-(oxolan-2-ylmethyl) benzamide]	17.5	significantly reduce	significantly reduce	less than 25%	226	39	–	–	–	–
